# Assay results taken from patent publication US6121264A, “Imidazole-substituted quinoxalinedione derivatives” (Yamanouchi Pharmaceutical Co., Ltd., priority 1996, dated 2000).
# Like-named read-outs stand apart in the source and are kept apart here.
# Key:
# AMPA receptor [1] = conditions: in vivo; cited from earlier work
# [2] = system: rat fetal hippocampus neurons; assay: Kainic acid neurotoxicity inhibition (LDH release) in primary culture of rat fetal hippocampus neurons; assay type: cell-based; conditions: Neuron, 300 μM kainic acid, 24 hours, read-out: Anti-kainic acid neurotoxicity (IC50)
# Excerpt: 2) Measurement of kainic acid neurotoxicity inhibition activity:
# The action of the compound of the present invention to inhibit kainic acid neurotoxicity was examined using a primary culture system of rat fetal hippocampus neurons.
# Hippocampus was excised from the brain of a rat of 18 to 20 days of age and treated with enzymes papain and DNase I to disperse the cells. The cells were suspended in MEM containing 10% serum and inoculated in 4×10^5 cells/cm^2 portions into wells of a 48 well plate which has been treated in advance with poly-I-lysine, and the medium was exchanged with serum-free medium 24 hours thereafter. The medium exchange was carried out twice a week. The cells cultured for 6 days or more were used in the following test.
# (2) Kainic acid neurotoxicity inhibition
# The neurotoxicity was expressed as the activity of lactate dehydrogenase released in the culture medium caused by cell death. Cells exposed for 24 hours to serum-free medium containing 300 μM of kainic acid were used as the control, and the action of each of the same test compounds used in the above item 1) to inhibit neuronal death caused by kainic acid was evaluated by allowing each compound to act upon the neurons for 24 hours simultaneously with 300 μM of kainic acid.
# AMPA receptor [3] = assay: [3H]-AMPA binding inhibition activity; conditions: about 45 nM [3H]-AMPA, rat cerebral membrane, 45 minutes on ice water
# Procedure: 1) Measurement of [^3 H]-AMPA binding inhibition activity:
# A 0.5 ml portion in total volume of a reaction solution containing about 45 nM of [^3 H]-AMPA [2-amino-3-(3-hydroxy-5-methyl-4-isoxazole)propionicacid], about […] of rat cerebral membrane samples and each of the test compounds was allowed to undergo 45 minutes of the reaction on ice water. The amount of [^3 H]-AMPA bonded to the AMPA receptor was measured by a filtration method. The portion substituted by 10 μM of quisqualic acid among the total amount of binding was defined as the amount of specific binding. Evaluation of the test compounds was carried out by calculating the ratio of binding inhibition exerted on the specific binding.
# As the test compounds, the compound of Example 3, which will be described later, was used as the compound of the present invention, and a compound described as Example 1 in the aforementioned reference 1, represented by the following formula (to be referred to as comparative compound 1 hereinafter), was used as a comparative compound. […]
# NMDA receptors = conditions: in vivo; cited from earlier work
# neuronal culture system = conditions: compound alone; cited from earlier work
# DBA/2 mice = assay: Audiogenic seizure inhibition action in DBA/2 mice; assay type: in vivo; conditions: Mus musculus, ip, 0.25 h; DBA/2 male mice, intraperitoneal injection 15 minutes before sound stimulus (12 kHz, 120 dB); read-out: minimum effective dose (MED), inhibition of audiogenic seizure
# Procedure: 3) Measurement of audiogenic seizure inhibition action in DBA/2 mice
# In a sound proof box, a total of 10 male mice of 21 to 28 days of age were exposed to auditory and stimulation by the sound of 12 kHz and 120 dB was applied for 1 minute or until the mice fell into a fit of convulsions. A compound to be tested (the compound of Example 3 which will be described later) was suspended in 0.5% methyl cellulose solution or dissolved in physiological saline and administered by intraperitoneal injection 15 minutes before the sound stimulus. The drug efficacy was evaluated by the presence or absence of spasm, and the minimum effective dose (MED) was calculated.
# AMPA receptor [4] = conditions: Data reported at the American Society of Neuroscience (1996); read-out: AMPA binding inhibition activity (IC50); cited from earlier work
# glycine receptor = conditions: in vivo; cited from earlier work
structure (smiles),measurement,setting,value
NS(=O)(=O)c1cccc2c1c([N+](=O)[O-])cc1[nH]c(=O)c(=O)[nH]c12 [NBQX],effect in experimental animal model suffering from cerebral ischemia (in words),AMPA receptor [1],useful
O=C(O)Cn1c(=O)c(=O)[nH]c2cc([N+](=O)[O-])c(-n3ccnc3)cc21 [Comparative compound 1],IC50,[2],800 nM
same,IC50,AMPA receptor [3],140 nM
NC(CCCCCP(=O)(O)O)C(=O)O (stereo not drawn) [2-amino-7-phosphonoheptanoic acid],effect in nervous disorders induced by NMDA and in animal models of epilepsy and cerebral ischemia (in words),NMDA receptors,effective
NC(CCCP(=O)(O)O)C(=O)O (stereo not drawn) [2-amino-5-phosphonovalerianic acid],effect in nervous disorders induced by NMDA and in animal models of epilepsy and cerebral ischemia (in words),NMDA receptors,effective
C=C(C)[C@H]1CN[C@H](C(=O)O)[C@H]1CC(=O)O [kainic acid],action in neurotoxicity test (in words),neuronal culture system,induces by itself significant neuronal death
"O=c1[nH]c2cc([N+](=O)[O-])c(-n3ccnc3)cc2n(CCCCOS(=O)(=O)O)c1=O [Example 3, 4-[2,3-dioxo-7-(1H-imidazol-1-yl)-6-nitro-1,2,3,4-tetrahydroquinoxalin-1-yl]butanesulfate]",IC50,[2],160 nM
same,minimal effective dose,DBA/2 mice,3 mg/kg
same,IC50,AMPA receptor [3],39 nM
O=c1[nH]c2cc(C(F)(F)F)c(N3CCOCC3)cc2n(CP(=O)(O)O)c1=O [Comparative compound 2],IC50,AMPA receptor [4],150 nM
NC1CCN(O)C1=O (stereo not drawn) [HA-966],effect in experimental animal model suffering from cerebral ischemia (in words),glycine receptor,useful
"Cc1onc(O)c1CC(N)C(=O)O (stereo not drawn) [AMPA, 2-amino-3-(3-hydroxy-5-methyl-4-isoxazolyl)propionic acid]",action in neurotoxicity test (in words),neuronal culture system,weak action
